Literature values, collected in PMC8991498 (Food Chemistry: Molecular Sciences, 2021).

Tested on: Caco-2 cell monolayers

Sequence | Absorption of β-casein fragment (ref Regazzo et al. (2010)) | Passage of RAP through Caco-2 cell monolayers (ref Xu et al. (2017))
YQEPVLGPVRGPFPIIV [β-casein fragment] | could be absorbed mainly by transcytosis | 
YWDHNNPQIR [RAP] |  | a percentage of this peptide managed to pass intact through the monolayer
